Test results published in article PMC7069944, “Amino acid levels determine metabolism and CYP450 function of hepatocytes and hepatoma cell lines” (Nature Communications, 2020).
Where “and” joins values, the source holds several entries; their conditions need not be identical. Identical values can stand only once.

Experiments:
HepG2 = assay: Repeated-exposure DILI training compounds, resazurin conversion, HepG2; details: for resazurin conversion (Supplementary Figure 7D): replicates; for % resazurin conversion: repeat exposure
Protocol: (§1) To evaluate the ability to predict hepatotoxicity, we adapted the differentiation assays to a 384-well format. […] As a readout, we evaluated cell viability by resazurin conversion and correlated the results to therapeutic doses (Cmax values).
(§2) PSCs were differentiated in a 384-well format. […] As a negative control, 41 wells were left untreated. HepG2 were seeded at 40,000 cells per well. […] Cells were fixed with 4% PFA. […] Drugs were administrated after 8 h of attachment.

HC6X = assay: Repeated-exposure DILI training compounds, resazurin conversion, HC6X; details: for resazurin conversion (Supplementary Figure 7D): replicates; for % resazurin conversion: repeat exposure
Protocol: as §1, §2

HC3X = assay: Repeated-exposure DILI training compounds, resazurin conversion, HC3X; details: for resazurin conversion (Supplementary Figure 7D): HC3X AAGLY D40, replicates; for IC50/Cmax: human
Protocol: as §1, §2

HLC = assay: Repeated-exposure DILI training compounds, resazurin conversion, HLC; details: repeat exposure
Protocol: as §1, §2

[1] = HC6X AAGLY D40 Remove dox, 100 uM

With `CCc1ccc(CCOc2ccc(CC3SC(=O)NC3=O)cc2)nc1` (stereo not shown) [Proglitazone] the “resazurin conversion (Supplementary Figure 7D)” value (HepG2; HepG2 AAGLY D30, 30 uM) was 76.5 (2×) and 98.3 and 82.8 and 103.2 and 80.9, the “resazurin conversion (Supplementary Figure 7D)” value (HepG2; HepG2 AAGLY D30, 50 uM) was 86.1 and 109.6 and 86.4 and 100 and 77.1 and 92.9 and the “resazurin conversion (Supplementary Figure 7D)” value (HepG2; HepG2 AAGLY D30, 100 uM) was 85.4 and 96.2 and 90.6 and 100.7 and 78.9 and 86.6. For the same molecule, the “resazurin conversion (Supplementary Figure 7D)” value (HepG2; HepG2 AAGLY D30, 300 uM) was 105.7 and 117.9 and 106.2 and 102.2, the “resazurin conversion (Supplementary Figure 7D)” value (HepG2; HepG2 AAGLY D30, 600 uM) was 91.8 and 99.3 and 126.4 and 102.6 and 116.8 and the “resazurin conversion (Supplementary Figure 7D)” value (HepG2; HepG2 AAGLY D30, 1200 uM) was 95.2 and 102.5 and 118.4 and 129.4 and 110.4 and 135.6. For the same molecule, the “resazurin conversion (Supplementary Figure 7D)” value (HepG2; HepG2 CTL D7, 30 uM) was 120.4 and 118.8 and 101.6 and 104 and 100.1, the “resazurin conversion (Supplementary Figure 7D)” value (HepG2; HepG2 CTL D7, 50 uM) was 129.5 and 93.8 and 100.8 and 96.7 and 101.2 and 122.3 and the “resazurin conversion (Supplementary Figure 7D)” value (HepG2; HepG2 CTL D7, 100 uM) was 125.4 and 88.5 and 98 and 96 (2×) and 110.7. For the same molecule, the “resazurin conversion (Supplementary Figure 7D)” value (HepG2; HepG2 CTL D7, 300 uM) was 117.2 and 87 and 94.6 (2×) and 95.5 and 111.8, the “resazurin conversion (Supplementary Figure 7D)” value (HepG2; HepG2 CTL D7, 600 uM) was 86.3 and 70.3 and 76.6 and 75.3 and 70.1 and 87.4 and the “resazurin conversion (Supplementary Figure 7D)” value (HepG2; HepG2 CTL D7, 1200 uM) was 57 and 33 and 42.5 and 44.8 and 41.7 and 59. The “resazurin conversion (Supplementary Figure 7D)” value (HC6X; HC6X AAGLY D40, 30 uM) was 134.4 and 112 and 79.3 and 107.2 and 76.2 and 91.4, the “resazurin conversion (Supplementary Figure 7D)” value (HC6X; HC6X AAGLY D40, 50 uM) was 137 and 83.7 and 59.1 and 75.7 and 149.3 and 136.5 and the “resazurin conversion (Supplementary Figure 7D)” value (HC6X; HC6X AAGLY D40, 100 uM) was 100.9 and 141.3 and 83.6 and 90.9 and 69.2 and 155.3. The “resazurin conversion (Supplementary Figure 7D)” value (HC6X; HC6X AAGLY D40, 300 uM) was 125.9 and 124.5 and 135.2 and 127.1 and 125.2 and 153.4, the “resazurin conversion (Supplementary Figure 7D)” value (HC6X; HC6X AAGLY D40, 600 uM) was 91.5 and 88.8 and 88.2 and 125.7 and 101 and 136.6 and the “resazurin conversion (Supplementary Figure 7D)” value (HC6X; HC6X AAGLY D40, 1200 uM) was 94.8 and 131 and 95.9 and 103.6 and 97.2 and 136.5. For the same molecule, the “resazurin conversion (Supplementary Figure 7D)” value (HC6X; HC6X AAGLY D40 Remove dox, 30 uM) was 121 and 98.9 and 91.2 and 87.5 and 101, the “resazurin conversion (Supplementary Figure 7D)” value (HC6X; HC6X AAGLY D40 Remove dox, 50 uM) was 105.9 and 84.2 and 118.5 and 71.8 and 81.4 and 110 and the “resazurin conversion (Supplementary Figure 7D)” value (HC6X; [1]) was 120.6 and 83.7 and 95.6 and 119.3 and 129.6. For the same molecule, the “resazurin conversion (Supplementary Figure 7D)” value (HC6X; HC6X AAGLY D40 Remove dox, 300 uM) was 107.4 and 124.1 and 139.3 and 91.4 and 117.3 and 157.9, the “resazurin conversion (Supplementary Figure 7D)” value (HC6X; HC6X AAGLY D40 Remove dox, 600 uM) was 74.1 and 108.7 and 93.3 and 116.1 and 116 and 105.8 and the “resazurin conversion (Supplementary Figure 7D)” value (HC6X; HC6X AAGLY D40 Remove dox, 1200 uM) was 119 and 156.2 and 148 and 139.2 and 120.5. The “resazurin conversion (Supplementary Figure 7D)” value (HC3X; 30 uM) was 121 and 98.9 and 91.2 and 87.5 and 101, the “resazurin conversion (Supplementary Figure 7D)” value (HC3X; 50 uM) was 105.9 and 84.2 and 118.5 and 71.8 and 81.4 and 110 and the “resazurin conversion (Supplementary Figure 7D)” value (HC3X; 100 uM) was 120.6 and 83.7 and 95.6 and 119.3 and 129.6. The “resazurin conversion (Supplementary Figure 7D)” value (HC3X; 300 uM) was 107.4 and 124.1 and 139.3 and 91.4 and 117.3 and 157.9, the “resazurin conversion (Supplementary Figure 7D)” value (HC3X; 600 uM) was 74.1 and 108.7 and 93.3 and 116.1 and 116 and 105.8 and the “resazurin conversion (Supplementary Figure 7D)” value (HC3X; 1200 uM) was 119 and 156.2 and 148 and 139.2 and 120.5.

`O=C1CC2(CCCC2)CC(=O)N1CCCCN1CCN(c2ncccn2)CC1` [Buspiron] was tested, and the “% resazurin conversion” value (HepG2; HepG2 AAGLY D30, 3 uM) was 82.9% and 82.6% and 85.2% and 70.1% and 73.2%, the “% resazurin conversion” value (HepG2; HepG2 AAGLY D30, 5 uM) was 75.8% and 88.2% and 72.9% and 66.2% and 79.4% and 72.2% and the “% resazurin conversion” value (HepG2; HepG2 AAGLY D30, 10 uM) was 70.9% and 76.8% and 83.7% and 64.5% and 73.5% and 76.4%. For the same molecule, the “% resazurin conversion” value (HepG2; HepG2 AAGLY D30, 30 uM) was 83.2% and 92.9% and 78.7% and 72.3% and 78.9% and 76.5%, the “% resazurin conversion” value (HepG2; HepG2 AAGLY D30, 50 uM) was 80.3% and 98.3% and 89.9% and 83.3% and 93.4% and 81.9% and the “% resazurin conversion” value (HepG2; HepG2 AAGLY D30, 100 uM) was 88.3% and 87.7% and 85.2% and 77.2% and 94.7% and 81.8%. For the same molecule, the “% resazurin conversion” value (HepG2; HepG2 AAGLY D30, 300 uM) was 47.4% and 86.8% and 88.6% and 79.7% and 88.3% and 80.1%, the “% resazurin conversion” value (HepG2; HepG2 AAGLY D30, 600 uM) was 76.5% and 91.9% and 75.1% and 71.1% and 78% and 76.7% and the “% resazurin conversion” value (HepG2; HepG2 AAGLY D30, 1200 uM) was 38% and 34.1% and 34.5% and 34.6% and 35.7%. For the same molecule, the “% resazurin conversion” value (HepG2; HepG2 CTL D7, 3 uM) was 92.8%, the “% resazurin conversion” value (HepG2; HepG2 CTL D7, 5 uM) was 96.4% and 97.6% and 106.5% and 96.6% and 98% and 90.2% and the “% resazurin conversion” value (HepG2; HepG2 CTL D7, 10 uM) was 94.3% and 94.1% and 99.5% and 93.5% and 98.4% and 95.6%. For the same molecule, the “% resazurin conversion” value (HepG2; HepG2 CTL D7, 30 uM) was 82.7% and 84.2% and 92.3% and 83% and 85.3% and 78.8%, the “% resazurin conversion” value (HepG2; HepG2 CTL D7, 50 uM) was 72.7% and 67.2% and 78.7% and 68.5% and 76.7% and 71.9% and the “% resazurin conversion” value (HepG2; HepG2 CTL D7, 100 uM) was 67.5% and 61.8% and 72.7% and 60.8% and 71.2% and 63.1%. The “% resazurin conversion” value (HepG2; HepG2 CTL D7, 300 uM) was 61.1% and 51.9% and 57.2% and 57% and 59.1% and 57.6%, the “% resazurin conversion” value (HepG2; HepG2 CTL D7, 600 uM) was 38.6% and 29% and 35.3% and 36.3% and 35.1% and 38.2% and the “% resazurin conversion” value (HepG2; HepG2 CTL D7, 1200 uM) was 7% and 6.5% and 7.1% and 6.8% and 6.6%. For the same molecule, the “% resazurin conversion” value (HC6X; HC6X AAGLY D40, 3 uM) was 109.5% and 96.9% and 120.8% and 98% and 87.5% and 117.9%, the “% resazurin conversion” value (HC6X; HC6X AAGLY D40, 5 uM) was 83.7% and 97.5% and 104.1% and 109.8% and 83.3% and 99.7% and the “% resazurin conversion” value (HC6X; HC6X AAGLY D40, 10 uM) was 85.5% and 135.9% and 111.1% and 117.5% and 91.9% and 102.2%. The “% resazurin conversion” value (HC6X; HC6X AAGLY D40, 30 uM) was 114% and 167.8% and 149.8% and 117.8% and 94% and 164.1%, the “% resazurin conversion” value (HC6X; HC6X AAGLY D40, 50 uM) was 112.9% and 116.6% and 111.2% and 167.3% and 107.2% and 107.3% and the “% resazurin conversion” value (HC6X; HC6X AAGLY D40, 100 uM) was 109.2% and 112.4% and 163.5% and 127.2% and 106% and 162.8%. The “% resazurin conversion” value (HC6X; HC6X AAGLY D40, 300 uM) was 140.3% and 103.5% and 121.9% and 115.9% and 101.2% and 155.2%, the “% resazurin conversion” value (HC6X; HC6X AAGLY D40, 600 uM) was 143.6% and 91% and 112.3% and 121.3% and 99.3% and 149.8% and the “% resazurin conversion” value (HC6X; HC6X AAGLY D40, 1200 uM) was 56.9% and 60.8% and 76.3% and 66.9% and 59.2%. For the same molecule, the “% resazurin conversion” value (HC6X; HC6X AAGLY D40 Remove dox, 3 uM) was 93.4% and 152.6% and 130.2% and 156.1% and 101.5% and 127.1%, the “% resazurin conversion” value (HC6X; HC6X AAGLY D40 Remove dox, 10 uM) was 169.9% and 114.9% and 169.4% and 120.1% and 97.5% and 96% and the “% resazurin conversion” value (HC6X; [1]) was 158.4% and 106.8% and 179.1% and 111.4% and 123.7% and 132%. For the same molecule, the “% resazurin conversion” value (HLC; HLC AAGLY D40, 5 uM) was 67.7% and 92.7% and 64.2% and 84.3% and 47.9% and 66.7%, the “% resazurin conversion” value (HLC; HLC AAGLY D40, 10 uM) was 85.8% and 64.9% and 92.1% and 82% and 66.1% and 66.8% and the “% resazurin conversion” value (HLC; HLC AAGLY D40, 30 uM) was 116.3% and 73.9% and 114.6% and 80.9% and 111.6% and 83.2%. For the same molecule, the “% resazurin conversion” value (HLC; HLC AAGLY D40, 600 uM) was 33.4% and 36.6% and 61.5% and 38.3% and 40.4% and 34.1%, the “% resazurin conversion” value (HLC; HLC AAGLY D40, 1200 uM) was 36.8% and 25.4% and 26.6% and 31.3% and 28.1% and 38% and the “% resazurin conversion” value (HLC; HLC LDM D40, 3 uM) was 103.9% and 103.1% and 108.1% and 79.4% and 66.2% and 77.5%. For the same molecule, the “% resazurin conversion” value (HLC; HLC LDM D40, 5 uM) was 89.3% and 69.5% and 87.6% and 70.2% and 108.2%, the “% resazurin conversion” value (HLC; HLC LDM D40, 10 uM) was 86.6% and 87.3% and 101% and 83.8% and 104.7% and 105% and the “% resazurin conversion” value (HLC; HLC LDM D40, 30 uM) was 71.9% and 90.1% and 102.1% and 75.5% and 80.5% and 81.4%. The “% resazurin conversion” value (HLC; HLC LDM D40, 50 uM) was 56.1% and 105.8% and 92.3% and 104% and 79.6% and the “% resazurin conversion” value (HLC; HLC LDM D40, 100 uM) was 84.7% and 120.8% and 121.2% and 77.9% and 92% and 91.2%.

`O=C1CC2(CCCC2)CC(=O)N1CCCCN1CCN(c2ncccn2)CC1` [Buspirone] was tested, and the IC50/Cmax (HC3X) was 120200.

With `C1CCC(C(CC2CCCCN2)C2CCCCC2)CC1` (stereo not shown) [perhexiline] the IC50/Cmax (HC3X) was 0.58.
